ChEMBL document CHEMBL1136235, “Synthesis and biological activity of piperazine-based dual MMP-13 and TNF-alpha converting enzyme inhibitors” (Bioorg Med Chem Lett, 2003)

Tests used:
[1] = molecular target: T1, Disintegrin and metalloproteinase domain-containing protein 17 (Homo sapiens, UniProt P78536); experiment: Inhibition of Tumor necrosis factor-alpha (TNF-alpha) release in human whole blood; type: functional, tissue-based
[2] = molecular target: T2, Interstitial collagenase (Homo sapiens, UniProt P03956); experiment: In vitro inhibition of matrix metalloprotease-1.
T2 sequence (P03956 whole entry): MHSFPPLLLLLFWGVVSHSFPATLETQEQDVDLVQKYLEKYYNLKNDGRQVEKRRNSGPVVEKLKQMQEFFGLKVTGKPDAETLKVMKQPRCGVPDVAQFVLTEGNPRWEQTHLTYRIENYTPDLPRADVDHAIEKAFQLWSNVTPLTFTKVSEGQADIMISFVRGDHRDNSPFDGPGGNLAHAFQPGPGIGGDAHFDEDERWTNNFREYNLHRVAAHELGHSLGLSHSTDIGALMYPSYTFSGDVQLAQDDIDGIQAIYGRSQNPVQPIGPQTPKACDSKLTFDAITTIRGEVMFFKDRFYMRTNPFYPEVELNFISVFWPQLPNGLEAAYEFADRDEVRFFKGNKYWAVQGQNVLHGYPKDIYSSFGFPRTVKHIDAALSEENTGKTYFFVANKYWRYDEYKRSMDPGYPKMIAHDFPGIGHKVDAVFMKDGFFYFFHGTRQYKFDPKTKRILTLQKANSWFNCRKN

[3] = molecular target: Collagenase 3 (Homo sapiens, UniProt P45452); experiment: In vitro inhibition of matrix metalloprotease-13.
[4] = molecular target: T1, Disintegrin and metalloproteinase domain-containing protein 17; experiment: Inhibition of human recombinant tumor necrosis factor-alpha converting enzyme.
[5] = Pharmacokinetic property (Vdss) in rat; type: ADME, organism-based; conditions: in vivo, read-out: Vdss
[6] = (§1) Pharmacokinetic property (Clp) in rat; type: ADME, organism-based; conditions: plasma, read-out: Clp
[7] = Half life in rat i.v.; type: ADME, organism-based; conditions: in vivo, iv
[8] = species on record: Rattus norvegicus; experiment: Concentration required for TNF-alpha production in an acute rat LPS-induced model; type: functional
[9] = species on record: Rattus norvegicus; experiment: as §1; type: ADME, organism-based; conditions: in vivo
[10] = Half in rat i.v.; type: ADME, organism-based; conditions: in vivo, iv
[11] = system: Rattus norvegicus; experiment: Inhibition of TNF-alpha production in an acute rat LPS-induced model at the dose of 30 mg/kg; type: functional

T1 sequence (P78536 whole entry, the tested form may be a part): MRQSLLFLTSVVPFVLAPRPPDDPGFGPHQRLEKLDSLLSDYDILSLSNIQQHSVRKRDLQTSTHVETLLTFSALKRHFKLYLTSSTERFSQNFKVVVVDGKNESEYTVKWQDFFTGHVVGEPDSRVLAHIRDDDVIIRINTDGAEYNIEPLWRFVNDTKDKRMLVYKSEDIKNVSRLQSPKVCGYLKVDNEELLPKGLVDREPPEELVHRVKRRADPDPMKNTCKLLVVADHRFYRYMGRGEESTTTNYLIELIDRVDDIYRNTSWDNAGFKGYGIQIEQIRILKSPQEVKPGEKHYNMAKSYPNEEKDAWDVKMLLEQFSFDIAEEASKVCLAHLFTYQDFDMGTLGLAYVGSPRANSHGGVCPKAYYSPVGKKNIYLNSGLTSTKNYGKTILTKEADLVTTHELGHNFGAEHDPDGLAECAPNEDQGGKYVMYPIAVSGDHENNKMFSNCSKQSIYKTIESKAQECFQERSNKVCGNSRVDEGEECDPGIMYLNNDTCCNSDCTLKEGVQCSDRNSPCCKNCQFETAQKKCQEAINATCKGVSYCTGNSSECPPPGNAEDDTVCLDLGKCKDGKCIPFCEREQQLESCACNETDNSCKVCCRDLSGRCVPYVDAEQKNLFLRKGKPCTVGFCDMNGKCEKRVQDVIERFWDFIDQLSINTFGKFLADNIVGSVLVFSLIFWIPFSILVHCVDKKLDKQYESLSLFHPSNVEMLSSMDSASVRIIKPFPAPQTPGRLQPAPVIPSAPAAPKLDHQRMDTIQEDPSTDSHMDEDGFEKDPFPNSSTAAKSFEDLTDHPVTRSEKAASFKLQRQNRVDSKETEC

IC50 [2] [nM]	IC50 [3] [nM]	Vd [5] [L/kg]	clearance [6] [mL/min/kg]	half-life [7] [min]	Clp [9] [mL/min/kg]	half-life [10] [min]	SMILES	IC50 [1] [nM]	IC50 [4] [nM]	ED50 [8] [mg/kg]	inhibition in vivo at 30 mg/kg [11] [%]
1500	6						CCOC(=O)N1CCN(S(=O)(=O)c2ccc(OCc3ccccc3C)cc2)[C@@H](C(=O)NO)[C@@H]1C	3000	28		
830	17						CC(=O)N1CCN(S(=O)(=O)c2ccc(OCc3ccnc4ccccc34)cc2)[C@@H](C(=O)NO)[C@@H]1C	300			
6700	40						CCc1ccccc1COc1ccc(S(=O)(=O)N2CCN(C(C)=O)[C@@H](C)[C@@H]2C(=O)NO)cc1	600	7		
12000	11						C[C@@H]1NCCN(S(=O)(=O)c2ccc(OCc3ccccc3)cc2)[C@H]1C(=O)NO	18000			
		0.6	54	16.2			CC(=O)N1CCN(S(=O)(=O)c2ccc(OCc3ccccc3C)cc2)[C@@H](C(=O)NO)[C@@H]1C	1000	6	17	
1300	4	2.1			98	12.6	Cc1ccccc1COc1ccc(S(=O)(=O)N2CCN(S(C)(=O)=O)[C@@H](C)[C@@H]2C(=O)NO)cc1	1000	6		55
2200							Cc1ccccc1COc1ccc(S(=O)(=O)N2CCN(C(=O)Nc3ccccc3)[C@@H](C)[C@@H]2C(=O)NO)cc1	12000	26		
1400	4						Cc1ccccc1COc1ccc(S(=O)(=O)N2CCN(C(=O)NC(C)C)[C@@H](C)[C@@H]2C(=O)NO)cc1	3000	34		
							Cc1ccc(S(=O)(=O)N2CCN(S(=O)(=O)c3ccc(OCc4ccccc4C)cc3)[C@@H](C(=O)NO)[C@@H]2C)cc1	26000	32		
3800	20						CC(=O)N1CCN(S(=O)(=O)c2ccc(OCc3cc(F)cc(F)c3)cc2)[C@@H](C(=O)NO)[C@@H]1C	1000	6		
12000	19	1.1	83	14.4			Cc1ccccc1COc1ccc(S(=O)(=O)N2CCN[C@@H](C)[C@@H]2C(=O)NO)cc1	2000			39
1900	7						CC(=O)N1CCN(S(=O)(=O)c2ccc(OCc3cc(F)ccc3C)cc2)[C@@H](C(=O)NO)[C@@H]1C	1000	7		
52	113						C#CCOc1ccc(S(=O)(=O)N(C)c2c(C)cc(Br)cc2C(=O)NO)cc1				
10000	127						CC(=O)N1CCN(S(=O)(=O)c2ccc(OCc3ccccc3C(F)(F)F)cc2)[C@@H](C(=O)NO)[C@@H]1C	2000	11		
							Cc1ccccc1COc1ccc(S(=O)(=O)N2CCN(C)[C@@H](C)[C@@H]2C(=O)NO)cc1	33000	31		
1500	4						COC(=O)N1CCN(S(=O)(=O)c2ccc(OCc3ccccc3C)cc2)[C@@H](C(=O)NO)[C@@H]1C	2000	14		

SMILES	IC50 [2] [nM]	IC50 [3] [nM]	Vd [5] [L/kg]	clearance [6] [mL/min/kg]	half-life [7] [min]	Clp [9] [mL/min/kg]	half-life [10] [min]	IC50 [1] [nM]	IC50 [4] [nM]	ED50 [8] [mg/kg]	inhibition in vivo at 30 mg/kg [11] [%]
CC(=O)N1CCN(S(=O)(=O)c2ccc(OCc3cccnc3C)cc2)[C@@H](C(=O)NO)[C@@H]1C	3400	8						800	5		
CC(=O)N1CCN(S(=O)(=O)c2ccc(OCc3ccc(F)cc3)cc2)[C@@H](C(=O)NO)[C@@H]1C	1700	3						2000	6		
CC[C@H](C)[C@H](NC(=O)C(CC(C)C)[C@H](C(C)C)N(O)C=O)C(=O)Nc1ccccn1 (stereo partly specified)	19	7							40		
CC(=O)N1CCN(S(=O)(=O)c2ccc(OCc3cncc4ccccc34)cc2)[C@@H](C(=O)NO)[C@@H]1C	6400	98						400			
Cc1ccccc1COc1ccc(S(=O)(=O)N2CCN(Cc3ccccc3)[C@@H](C)[C@@H]2C(=O)NO)cc1	17000							33000	68		
